Assay results taken from patent US4336250A, “Lactation improvement method” (Eli Lilly and Company, priority 1981, dated 1982).

Legend:
[1] = test system: dairy cows; settings: all administration rates evaluated; cited from earlier work
[2] = test system: Ruminal VFA (rumen fluid); assay: In vitro rumen fluid fermentation test, ratio of VFA in treated to control flasks; set-up: species or system steer; settings: 16 hours at 38° C
Excerpt: As previously noted, a preferred method for improving milk production in lactating ruminants comprises the oral administration of the virginiamycin type antibiotic A-2315. […] Rumen fluid is obtained from a steer with a surgically-installed fistula opening into the rumen. The steer is maintained on a high-grain ration, the composition of which follows: A sample of rumen fluid is strained through four layers of cheesecloth, and the filtrate is collected. The particulate matter retained by the cheesecloth is resuspended in enough physiological buffer to return it to the original volume of the rumen fluid, and this suspension is strained again. The buffer used has the following composition: The two filtrates are combined and allowed to stand until particulate matter separates to the top. The clear layer is separated, diluted with the same buffer (1:1) and then adjusted to pH 7.0. The diluted rumen fluid (10 ml.) is placed in a 25-ml flask with 40 mg. of the above-described feed, an additional 5 mg. of soybean protein, and the test compound. Four replicate flasks are used per treatment. Two sets of four control flasks each are also employed. A zero-time control and an incubated 16-hour control are used. All test flasks are incubated for 16 hours at 38° C. After incubation, 25 percent metaphosphoric acid (2 ml.) is added to each flask. The samples are allowed to settle, and the supernatant is analyzed by gas chromatography for propionate, acetate, and butyrate compounds. Test compound results are statistically compared with control results.

[3] = test system: Ruminal VFA; assay: In vivo ruminal VFA test in fistulated non-lactating lambs; set-up: species or system sheep; settings: 15 g/ton in feed
Experimental: Two groups of fistulated lambs are allowed slightly more than their normal feed ration for 17 days. Test compound is administered to one group in the feed on a g/ton basis.
The rumen fluids of both groups of animals are sampled on days 3, 7, 10, 14 and 17 of the treatment period.
The fermentation of the ruminal samples is halted by addition of meta-phosphoric acid. Each sample is diluted, centrifuged at 2000×gravity for 10 minutes; the supernatants are analyzed for volatile fatty acids via the gas chromatographic method of E. S. Erwin, G. J. Marco and E. M. Emery in J. Dairy Sci., 44, 1768 […]. Molar percentages of ruminal volatile fatty acids are calculated, and the effect is measured as a comparison of the molar percentages of propionic acid and butyric acid in treated animals to those in contemporary controls. The results of the test are presented below in Tables II and III.

[4] = 0.1 mcg per ml diluted rumen fluid
[5] = 0.3 mcg per ml diluted rumen fluid
[6] = 1.0 mcg per ml diluted rumen fluid
[7] = molar percentage of ruminal VFA, 17 days

Row | SMILES | fat-corrected-milk production [1] | Acetate, ratio of VFA concentration in treated flasks to control flasks [2, 4] | Butyrate, ratio of VFA concentration in treated flasks to control flasks [2, 4] | Propionate, ratio of VFA concentration in treated flasks to control flasks [2, 4] | Total VFA, ratio of concentration in treated flasks to control flasks [2, 4] | Acetate, ratio of VFA concentration in treated flasks to control flasks [2, 5] | Butyrate, ratio of VFA concentration in treated flasks to control flasks [2, 5] | Propionate, ratio of VFA concentration in treated flasks to control flasks [2, 5] | Total VFA, ratio of concentration in treated flasks to control flasks [2, 5] | Acetate, ratio of VFA concentration in treated flasks to control flasks [2, 6] | Butyrate, ratio of VFA concentration in treated flasks to control flasks [2, 6] | Propionate, ratio of VFA concentration in treated flasks to control flasks [2, 6] | Total VFA, ratio of concentration in treated flasks to control flasks [2, 6] | Butyric acid, Increase Relative to Control [3] [%] | Propionic acid, Increase Relative to Control [3] [%] | Butyric acid, Change from Control ([3]; control 11.1) | Propionic acid, Change from Control ([3]; control 26.2) | % Butyric Acid Conc. [3, 7] [%] | % Propionic Acid Conc. [3, 7] [%]
1 | CC[C@@]1([C@@H]2O[C@@H]([C@H]3O[C@@](O)(CO)[C@H](C)C[C@@H]3C)C[C@@H]2C)CC[C@H]([C@]2(C)CC[C@]3(C[C@H](O)[C@@H](C)[C@@H]([C@@H](C)[C@@H](OC)[C@H](C)C(=O)O)O3)O2)O1 [Monensin] | no different from that of non-treated control animals |  |  |  |  |  |  |  |  |  |  |  |  |  |  |  |  |  | 
2 | CC1=C\[C@@H](O)C[C@@H](O)Cc2nc(co2)C(=O)N[C@H](C)C(=O)O[C@H](C(C)C)[C@H](C)/C=C/C(=O)NC\C=C\1 [A-2315 Factor A] |  | 0.97 | 1.01 | 1.07 | 1.04 | 0.95 | 1.00 | 1.08 | 1.07 | 0.95 | 1.04 | 1.15 | 1.05 | 21.6 | 18.2 | 2.4 | 4.8 | 13.5 | 31.0
